Test results reported in patent US11351163B2, “Compositions and methods of treating cancer” (BRISTOL-MYERS SQUIBB COMPANY, priority 2017, dated 2022).

How the values were obtained:
[1] = Clinical trial of Example 2: safety and tolerability (DLTs, TRAEs), dose escalation and expansion; assay type: in vivo
Text: Purpose: The purpose of the study is to, among other things, determine safety and effectiveness of a compound of Formula I (or salt thereof) when combined with nivolumab and in combination with both nivolumab and ipilimumab in patients with cancers that are advanced or have spread. Pharmacokinetics and pharmacodynamics (including immunomodulatory assays) of a compound of Formula I when combined with nivolumab and in combination with nivolumab and ipilimumab in this patient population will also be assessed.
Primary Outcome Measures: • Safety and tolerability of a compound of Formula I as measured by a composite of the incidence of adverse events (AEs), serious adverse events (SAEs), AEs leading to discontinuation, deaths, and clinical laboratory test abnormalities. The time frame is 100 days after the last dose of study therapy. • Safety of a compound of Formula I plus nivolumab as measured by a composite of the incidence of adverse events (AEs), serious adverse events (SAEs), AEs leading to discontinuation, deaths, and clinical laboratory test abnormalities. The time frame is 100 days after the last dose of study therapy. • Safety of a compound of Formula I plus both nivolumab and ipilimumab as measured by incidence of adverse events (AEs), serious adverse events (SAEs), AEs leading to discontinuation, deaths, and clinical laboratory test abnormalities. The time frame is 100 days after the last dose of study therapy. • Anti-tumor activity of a compound of Formula I administered in combination with nivolumab as measured by the best overall response (BOR) as measured by CT scan. The time frame is approximately 3 years. • Anti-tumor activity of a compound of Formula I administered in combination with nivolumab as measured by the duration of response (DOR) as measured by CT scan. The time frame is approximately 3 years. • Anti-tumor activity of a compound of Formula I administered in combination with nivolumab as measured by progression-free survival rates (PFSRs) as measured by CT scan. The time frame is approximately 3 years. • Anti-tumor activity of a compound of Formula I administered in combination with both nivolumab and ipilimumab as measured by the best overall response (BOR) as measured by CT scan. The time frame is approximately 3 years. • Anti-tumor activity of a compound of Formula I administered in combination with both nivolumab and ipilimumab as measured by the duration of response (DOR) as measured by CT scan. The time frame is approximately 3 years. • Anti-tumor activity of a compound of Formula I administered in combination with both nivolumab and ipilimumab as measured by progression-free survival rates (PFSRs) as measured by CT scan. The time frame is approximately 3 years.
1. Combination Therapy (Dose Escalation). Participants with advanced cancers received a compound of Formula I orally (PO), daily (QD) at a dose of 25 mg, 50 mg, 100 mg or 200 mg for all advanced cancers over a 2 week lead-in period. Participants were then also administered nivolumab intravenously at a dose of 240 mg once every two weeks.
2. Combination Therapy (Dose Expansion). A total of 219 participants with select previously treated advanced malignancies received a compound of Formula I at a dose of 100 or 200 mg orally once daily plus nivolumab at a dose of 240 mg intravenously once every two weeks (Q2W) or at a dose of 480 mg intravenously once every four weeks (Q4W). Advanced malignancies included cervical cancer (21 patients), diffuse large B-cell lymphoma (DLBCL) (4 patients), non-small cell lung cancer (NSCLC) (7 patients), renal cell carcinoma (RCC) (0 patients); squamous cell carcinoma of the head and neck (SCCHN) (16 patients), bladder cancer (18 patients), pancreatic cancer (18 patients), melanoma (21 patients), and ASST, a mixed tumor type cohort consisting of sarcoma, endometrial and breast cancer (19 patients). […]

kynurenine = assay: Kynurenine in paired tumor samples and serum of patients (FIG. 1A, 1B); assay type: in vivo, human
Protocol: FIG. 1A illustrates intratumoral kynurenine concentrations at 100 mg, 200 mg or 400 mg of the compound of Formula (I).
FIG. 1B illustrates percent serum kynurenine reduction at 20 mg, 50 mg, 100 mg, 200 mg or 400 mg of the compound of Formula (I).
Dark bars represent a pretreatment kynurenine condition and light bars represent an on-treatment kynurenine (C1D15) condition. Asterisks (*) denotes samples below the lower limit of quantitation.

[2] = Clinical trial of Example 10: safety (TRAEs) and end of treatment disposition; assay type: in vivo
Text: Primary Outcome Measures: • Safety and tolerability of a compound of Formula I as measured by a composite of the incidence of adverse events (AEs), serious adverse events (SAEs), AEs leading to discontinuation, deaths, and clinical laboratory test abnormalities. The time frame is 100 days after the last dose of study therapy. • Safety of a compound of Formula I plus nivolumab as measured by a composite of the incidence of adverse events (AEs), serious adverse events (SAEs), AEs leading to discontinuation, deaths, and clinical laboratory test abnormalities. […] The time frame is approximately 3 years. • Anti-tumor activity of a compound of Formula I administered in combination with nivolumab as measured by the duration of response (DOR) as measured by CT scan. The time frame is approximately 3 years. • Anti-tumor activity of a compound of Formula I administered in combination with nivolumab as measured by progression-free survival rates (PFSRs) as measured by CT scan. The time frame is approximately 3 years.
1. Combination Therapy (Dose Escalation).
2. Combination Therapy (Dose Expansion). […] Three patients received the compound of Formula I alone. IDO1 inhibitor therapy is not permitted. Prior exposure to immune checkpoint inhibitors or therapy targeting T-cell costimulation requires a washout period of >4 weeks.

[3] = patients with advanced bladder cancer

Compound: C[C@@H](C(=O)Nc1ccc(Cl)cc1)[C@H]1CC[C@@H](c2ccnc3ccc(F)cc32)CC1 [compound of Formula I, (R)-N-(4-chlorophenyl)-2-(cis-4-(6-fluoroquinolin-4-yl)cyclohexyl)propanamide]
- # of DLTs/# DLT evaluable ([1]; 25 mg, dose escalation): 0/7
- # of DLTs/# DLT evaluable ([1]; 50 mg, dose escalation): 0/8
- # of DLTs/# DLT evaluable ([1]; 100 mg, dose escalation): 1/9
- # of DLTs/# DLT evaluable ([1]; 200 mg, dose escalation): 3/12
- # of DLTs/# DLT evaluable ([1]; 400 mg, dose escalation): 2/4
- DLTs ([1]; 400 mg, dose escalation): grade 3 AST/ALT; grade 2 anemia, fatigue
- Maximum tolerated dose ([1]; during escalation): 200 mg
- reduction in serum kynurenine levels (kynurenine; 100 mg once daily, FIG. 1B): ~60%
- intratumoral kynurenine (kynurenine; 39 paired pre- vs on-treatment (C1D15) tumor samples across various tumor types, FIG. 1A): reduced across all doses
- tolerability of 100 mg ([2]; 100 mg vs the 200-mg dose, with nivolumab): improved tolerability vs the 200-mg dose
- tolerability [2, 3]: well tolerated
- treatment-related deaths [2, 3]: No treatment-related deaths occurred
